In ChEMBL document CHEMBL5338802, “To Fold or Not to Fold: Diastereomeric Optimization of an α-Helical Antimicrobial Peptide” (J Med Chem, 2023):

Test system: Erythrocyte
Assay: Hemolytic activity in human RBC incubated for 4 hrs by visual analysis
Format: toxicity, cell-based
Conditions: not given

Row | SMILES | MHC [µg/mL]
1 | CC(C)CC(NC(=O)C(CC(C)C)NC(=O)C(CC(C)C)NC(=O)C(CCCCN)NC(=O)C(CC(C)C)NC(=O)[C@H](CC(C)C)NC(=O)C(CCCCN)NC(=O)C(CC(C)C)NC(=O)C(CC(C)C)NC(=O)C(CCCCN)NC(=O)C(N)CCCCN)C(N)=O (some centres not stated) | 2000
2 | CC(C)C[C@H](NC(=O)[C@H](CC(C)C)NC(=O)[C@H](CC(C)C)NC(=O)[C@H](CCCCN)NC(=O)[C@H](CC(C)C)NC(=O)[C@H](CC(C)C)NC(=O)[C@@H](CCCCN)NC(=O)[C@H](CC(C)C)NC(=O)[C@H](CC(C)C)NC(=O)[C@@H](CCCCN)NC(=O)[C@H](N)CCCCN)C(N)=O | < 15.6
3 | CC(C)C[C@H](NC(=O)[C@H](CC(C)C)NC(=O)[C@H](CC(C)C)NC(=O)[C@H](CCCCN)NC(=O)[C@@H](CC(C)C)NC(=O)[C@@H](CC(C)C)NC(=O)[C@H](CCCCN)NC(=O)[C@H](CC(C)C)NC(=O)[C@H](CC(C)C)NC(=O)[C@H](CCCCN)NC(=O)[C@@H](N)CCCCN)C(N)=O | 500
4 | CC(C)C[C@H](NC(=O)[C@H](CC(C)C)NC(=O)[C@@H](CCCCN)NC(=O)[C@H](CC(C)C)NC(=O)[C@H](CC(C)C)NC(=O)[C@@H](CCCCN)NC(=O)[C@@H](CC(C)C)NC(=O)[C@H](CC(C)C)NC(=O)[C@H](CCCCN)NC(=O)[C@@H](N)CCCCN)C(=O)N[C@H](CC(C)C)C(N)=O | > 2000
5 | CC(C)C[C@H](NC(=O)[C@H](CC(C)C)NC(=O)[C@H](CC(C)C)NC(=O)[C@H](CCCCN)NC(=O)[C@@H](CC(C)C)NC(=O)[C@@H](CC(C)C)NC(=O)[C@H](CCCCN)NC(=O)[C@@H](CC(C)C)NC(=O)[C@@H](CC(C)C)NC(=O)[C@H](CCCCN)NC(=O)[C@@H](N)CCCCN)C(N)=O | 1000
6 | CC(C)C[C@H](NC(=O)[C@H](CC(C)C)NC(=O)[C@@H](CCCCN)NC(=O)[C@H](CC(C)C)NC(=O)[C@H](CC(C)C)NC(=O)[C@@H](CCCCN)NC(=O)[C@H](CC(C)C)NC(=O)[C@H](CC(C)C)NC(=O)[C@@H](CCCCN)NC(=O)[C@H](N)CCCCN)C(=O)N[C@H](CC(C)C)C(N)=O | > 2000
7 | CC(C)C[C@H](NC(=O)[C@H](CC(C)C)NC(=O)[C@H](CC(C)C)NC(=O)[C@H](CCCCN)NC(=O)[C@@H](CC(C)C)NC(=O)[C@@H](CC(C)C)NC(=O)[C@H](CCCCN)NC(=O)[C@@H](CC(C)C)NC(=O)[C@@H](CC(C)C)NC(=O)[C@@H](CCCCN)NC(=O)[C@@H](N)CCCCN)C(N)=O | 250
8 | CC(C)C[C@H](NC(=O)[C@H](CCCCN)NC(=O)[C@H](CC(C)C)NC(=O)[C@H](CC(C)C)NC(=O)[C@@H](CCCCN)NC(=O)[C@H](CC(C)C)NC(=O)[C@H](CC(C)C)NC(=O)[C@@H](CCCCN)NC(=O)[C@H](N)CCCCN)C(=O)N[C@@H](CC(C)C)C(=O)N[C@H](CC(C)C)C(N)=O | 1000
9 | CC(C)C[C@H](NC(=O)[C@H](CCCCN)NC(=O)[C@H](N)CCCCN)C(=O)N[C@@H](CC(C)C)C(=O)N[C@H](CCCCN)C(=O)N[C@H](CC(C)C)C(=O)N[C@H](CC(C)C)C(=O)N[C@@H](CCCCN)C(=O)N[C@@H](CC(C)C)C(=O)N[C@@H](CC(C)C)C(=O)N[C@H](CC(C)C)C(N)=O | 1000
10 | CC(C)C[C@H](NC(=O)[C@@H](CC(C)C)NC(=O)[C@@H](CC(C)C)NC(=O)[C@H](CCCCN)NC(=O)[C@H](CC(C)C)NC(=O)[C@H](CC(C)C)NC(=O)[C@H](CCCCN)NC(=O)[C@H](CC(C)C)NC(=O)[C@@H](CC(C)C)NC(=O)[C@@H](CCCCN)NC(=O)[C@@H](N)CCCCN)C(N)=O | 1000
11 | CC(C)C[C@H](NC(=O)[C@H](CC(C)C)NC(=O)[C@@H](CC(C)C)NC(=O)[C@H](CCCCN)NC(=O)[C@@H](CC(C)C)NC(=O)[C@@H](CC(C)C)NC(=O)[C@H](CCCCN)NC(=O)[C@@H](CC(C)C)NC(=O)[C@@H](CC(C)C)NC(=O)[C@H](CCCCN)NC(=O)[C@@H](N)CCCCN)C(N)=O | > 2000
12 | CC(C)C[C@H](NC(=O)[C@H](CC(C)C)NC(=O)[C@H](CC(C)C)NC(=O)[C@H](CCCCN)NC(=O)[C@H](CC(C)C)NC(=O)[C@@H](CC(C)C)NC(=O)[C@H](CCCCN)NC(=O)[C@@H](CC(C)C)NC(=O)[C@@H](CC(C)C)NC(=O)[C@@H](CCCCN)NC(=O)[C@@H](N)CCCCN)C(N)=O | 250
13 | CC(C)C[C@H](NC(=O)[C@@H](CC(C)C)NC(=O)[C@H](CC(C)C)NC(=O)[C@H](CCCCN)NC(=O)[C@@H](CC(C)C)NC(=O)[C@H](CC(C)C)NC(=O)[C@H](CCCCN)NC(=O)[C@@H](CC(C)C)NC(=O)[C@@H](CC(C)C)NC(=O)[C@H](CCCCN)NC(=O)[C@@H](N)CCCCN)C(N)=O | > 2000
14 | CC(C)C[C@H](NC(=O)[C@@H](CC(C)C)NC(=O)[C@H](CCCCN)NC(=O)[C@@H](CC(C)C)NC(=O)[C@H](CC(C)C)NC(=O)[C@@H](CCCCN)NC(=O)[C@H](CC(C)C)NC(=O)[C@@H](CC(C)C)NC(=O)[C@H](CCCCN)NC(=O)[C@H](N)CCCCN)C(=O)N[C@H](CC(C)C)C(N)=O | > 2000
15 | CC(C)C[C@@H](NC(=O)[C@@H](CC(C)C)NC(=O)[C@@H](CC(C)C)NC(=O)[C@@H](CCCCN)NC(=O)[C@@H](CC(C)C)NC(=O)[C@@H](CC(C)C)NC(=O)[C@@H](CCCCN)NC(=O)[C@@H](CC(C)C)NC(=O)[C@@H](CC(C)C)NC(=O)[C@@H](CCCCN)NC(=O)[C@H](N)CCCCN)C(N)=O | 125
16 | CC(C)C[C@H](NC(=O)[C@H](CC(C)C)NC(=O)[C@H](CC(C)C)NC(=O)[C@H](CCCCN)NC(=O)[C@@H](CC(C)C)NC(=O)[C@@H](CC(C)C)NC(=O)[C@@H](CCCCN)NC(=O)[C@H](CC(C)C)NC(=O)[C@H](CC(C)C)NC(=O)[C@H](CCCCN)NC(=O)[C@@H](N)CCCCN)C(N)=O | 31.3
17 | CC(C)C[C@H](NC(=O)[C@H](CC(C)C)NC(=O)[C@@H](CC(C)C)NC(=O)[C@@H](CCCCN)NC(=O)[C@H](CC(C)C)NC(=O)[C@H](CC(C)C)NC(=O)[C@H](CCCCN)NC(=O)[C@@H](CC(C)C)NC(=O)[C@@H](CC(C)C)NC(=O)[C@H](CCCCN)NC(=O)[C@@H](N)CCCCN)C(N)=O | 1000
18 | CC(C)C[C@H](NC(=O)[C@H](CC(C)C)NC(=O)[C@@H](CC(C)C)NC(=O)[C@@H](CCCCN)NC(=O)[C@H](CC(C)C)NC(=O)[C@H](CC(C)C)NC(=O)[C@@H](CCCCN)NC(=O)[C@@H](CC(C)C)NC(=O)[C@H](CC(C)C)NC(=O)[C@H](CCCCN)NC(=O)[C@@H](N)CCCCN)C(N)=O | 125
19 | CC(C)C[C@H](NC(=O)[C@H](CC(C)C)NC(=O)[C@H](CC(C)C)NC(=O)[C@@H](CCCCN)NC(=O)[C@@H](CC(C)C)NC(=O)[C@@H](CC(C)C)NC(=O)[C@@H](CCCCN)NC(=O)[C@H](CC(C)C)NC(=O)[C@H](CC(C)C)NC(=O)[C@H](CCCCN)NC(=O)[C@@H](N)CCCCN)C(N)=O | 1000
20 | CC(C)C[C@H](NC(=O)[C@H](CC(C)C)NC(=O)[C@@H](CCCCN)NC(=O)[C@H](CC(C)C)NC(=O)[C@H](CC(C)C)NC(=O)[C@@H](CCCCN)NC(=O)[C@H](N)CCCCN)C(=O)N[C@@H](CCCCN)C(=O)N[C@@H](CC(C)C)C(=O)N[C@H](CC(C)C)C(=O)N[C@H](CC(C)C)C(N)=O | > 2000
21 | CC(C)CC(NC(=O)C(CC(C)C)NC(=O)C(CC(C)C)NC(=O)C(CCCCN)NC(=O)C(CC(C)C)NC(=O)C(CC(C)C)NC(=O)C(CCCCN)NC(=O)C(CC(C)C)NC(=O)C(CC(C)C)NC(=O)C(CCCCN)NC(=O)C(N)CCCCN)C(N)=O (racemic) | 1000
22 | CC(C)C[C@H](NC(=O)[C@H](CCCCN)NC(=O)[C@H](CC(C)C)NC(=O)[C@H](CC(C)C)NC(=O)[C@@H](CCCCN)NC(=O)[C@H](N)CCCCN)C(=O)N[C@@H](CC(C)C)C(=O)N[C@@H](CCCCN)C(=O)N[C@@H](CC(C)C)C(=O)N[C@H](CC(C)C)C(=O)N[C@H](CC(C)C)C(N)=O | 1000
23 | CC(C)C[C@H](NC(=O)[C@H](CC(C)C)NC(=O)[C@H](CC(C)C)NC(=O)[C@@H](CCCCN)NC(=O)[C@H](CC(C)C)NC(=O)[C@H](CC(C)C)NC(=O)[C@@H](CCCCN)NC(=O)[C@H](CC(C)C)NC(=O)[C@H](CC(C)C)NC(=O)[C@@H](CCCCN)NC(=O)[C@H](N)CCCCN)C(N)=O | 1000
24 | CC(C)C[C@H](NC(=O)[C@H](CC(C)C)NC(=O)[C@@H](CC(C)C)NC(=O)[C@H](CCCCN)NC(=O)[C@H](CC(C)C)NC(=O)[C@@H](CC(C)C)NC(=O)[C@H](CCCCN)NC(=O)[C@H](CC(C)C)NC(=O)[C@@H](CC(C)C)NC(=O)[C@@H](CCCCN)NC(=O)[C@@H](N)CCCCN)C(N)=O | > 2000
25 | CC(C)C[C@H](NC(=O)[C@H](CC(C)C)NC(=O)[C@H](CC(C)C)NC(=O)[C@H](CCCCN)NC(=O)[C@H](CC(C)C)NC(=O)[C@H](CC(C)C)NC(=O)[C@@H](CCCCN)NC(=O)[C@H](CC(C)C)NC(=O)[C@H](CC(C)C)NC(=O)[C@@H](CCCCN)NC(=O)[C@@H](N)CCCCN)C(N)=O | < 15.6
26 | CC(C)C[C@H](NC(=O)[C@H](CC(C)C)NC(=O)[C@@H](CC(C)C)NC(=O)[C@H](CCCCN)NC(=O)[C@@H](CC(C)C)NC(=O)[C@H](CC(C)C)NC(=O)[C@@H](CCCCN)NC(=O)[C@H](CC(C)C)NC(=O)[C@@H](CC(C)C)NC(=O)[C@H](CCCCN)NC(=O)[C@@H](N)CCCCN)C(N)=O | > 2000
27 | CC(C)C[C@H](NC(=O)[C@@H](CC(C)C)NC(=O)[C@H](CC(C)C)NC(=O)[C@@H](CCCCN)NC(=O)[C@H](CC(C)C)NC(=O)[C@@H](CC(C)C)NC(=O)[C@H](CCCCN)NC(=O)[C@@H](CC(C)C)NC(=O)[C@H](CC(C)C)NC(=O)[C@@H](CCCCN)NC(=O)[C@@H](N)CCCCN)C(N)=O | > 2000
28 | CC(C)C[C@H](NC(=O)[C@H](CC(C)C)NC(=O)[C@H](CC(C)C)NC(=O)[C@@H](CCCCN)NC(=O)[C@@H](CC(C)C)NC(=O)[C@@H](CC(C)C)NC(=O)[C@@H](CCCCN)NC(=O)[C@@H](CC(C)C)NC(=O)[C@H](CC(C)C)NC(=O)[C@H](CCCCN)NC(=O)[C@@H](N)CCCCN)C(N)=O | 250

Test system: not listed separately
Assay: Induction of membrane disruption in eukaryotic inner membrane mimic EYPC vesicles assessed as carboxyfluorescein leakage at 10 ug/ml measured after 240 secs by fluorescence based assay
Format: cell membranes
Conditions: dose 10.0 µg/ml, time 240.0 sec

Row | SMILES | Activity [%]
29 | CC(C)C[C@H](NC(=O)[C@H](CCCCN)NC(=O)[C@H](N)CCCCN)C(=O)N[C@@H](CC(C)C)C(=O)N[C@H](CCCCN)C(=O)N[C@H](CC(C)C)C(=O)N[C@H](CC(C)C)C(=O)N[C@@H](CCCCN)C(=O)N[C@@H](CC(C)C)C(=O)N[C@@H](CC(C)C)C(=O)N[C@H](CC(C)C)C(N)=O | 3
30 | CC(C)C[C@H](NC(=O)[C@H](CC(C)C)NC(=O)[C@@H](CC(C)C)NC(=O)[C@H](CCCCN)NC(=O)[C@@H](CC(C)C)NC(=O)[C@@H](CC(C)C)NC(=O)[C@H](CCCCN)NC(=O)[C@@H](CC(C)C)NC(=O)[C@@H](CC(C)C)NC(=O)[C@H](CCCCN)NC(=O)[C@@H](N)CCCCN)C(N)=O | 4
31 | CC(C)C[C@H](NC(=O)[C@H](CC(C)C)NC(=O)[C@@H](CC(C)C)NC(=O)[C@@H](CCCCN)NC(=O)[C@H](CC(C)C)NC(=O)[C@H](CC(C)C)NC(=O)[C@@H](CCCCN)NC(=O)[C@@H](CC(C)C)NC(=O)[C@H](CC(C)C)NC(=O)[C@H](CCCCN)NC(=O)[C@@H](N)CCCCN)C(N)=O | 2
32 | CC(C)C[C@H](NC(=O)[C@H](CC(C)C)NC(=O)[C@@H](CC(C)C)NC(=O)[C@H](CCCCN)NC(=O)[C@@H](CC(C)C)NC(=O)[C@H](CC(C)C)NC(=O)[C@@H](CCCCN)NC(=O)[C@H](CC(C)C)NC(=O)[C@@H](CC(C)C)NC(=O)[C@H](CCCCN)NC(=O)[C@@H](N)CCCCN)C(N)=O | 3
